According to patent US12357581B2, “Nanoparticles comprising copolymeric or homopolymeric compounds which comprise cyanoacrylate subunits” (SINTEF TTO AS, priority 2019, dated 2025):
Entries after “also recorded” stand apart in the source; their conditions may differ.

How the values were obtained:
[1] = Solubility of API/dyes with ACA monomers (visual); type: physicochemical; conditions: typically 5.0 mg in 100 ul monomer, 24 h; for Solubility of CBZ in the monomer (blend): cabazitaxel
Source text: Solubility and degree of polymerization were monitored visually.
Where the result is given as ‘soluble’, the API was soluble in the choose monomer with no visual residue, and there can be used as a combination to prepare API loaded nanoparticles. If the results are given as insoluble or partially, it is an indication that this combination cannot be used to prepared API loaded nanoparticles.

Hep G2 = assay: Alcohol toxicity, MTT cell viability assay, Hep G2; type: cell-based, human; conditions: 24 h, vs untreated control
Protocol: (§1) MTT cell viability assay.
(§2) Alcohol toxicity is disclosed in Table 3: Alcohol toxicity was assessed by exposure of the cells to a given concentration of alcohol to a limit of 3 wt %. Cell activity was determined after 24 h and compared to an untreated control. Data is reported as percentage remaining cell activity (vs control) in 3% alcohol in three individual cell lines. The greater the percentage of remaining activity, the lower the toxicity of the alcohol to the cell line. Thus, Hep G2 cells exposed to 3 wt % 2-ethylhexanol retained 91.2% activity, whereas Hep G2 cells exposed to 3 wt % 2-ethylbutanol retained only 74.6% activity. Thus 2-ethylhexanol is less toxic to Hep G2 cells than 2-ethylbutanol.

IMR-90 = assay: Alcohol toxicity, MTT cell viability assay, IMR-90; type: cell-based, human; conditions: 24 h, vs untreated control
Protocol: as §1, §2

LLC-PK1 = assay: Alcohol toxicity, MTT cell viability assay, LLC-PK1; type: cell-based, porcine; conditions: 24 h, vs untreated control
Protocol: as §1, §2

[2] = tested on: Hep G2 cell line and LLC-PK1
Protocol: Cell lines: The cell lines were used for determining alcohol cytotoxicity Hep G2 (Human liver cancer cell line), LLC-PK1 (Porcine kidney cell line) and IMR-90 (Human lung fibroblast cell line). All medium was fortified with 10% (w/v) fetal calf serum albumin (Sigma) and 100 units/ml penicillin/streptomycin (PenStrep®, Sigma). All cell lines were obtained from ATCC and were routinely tested for mycoplasma. Cells growing in 24- or 96-well plates were incubated with serial dilutions of the alcohol for 24 h, at 37° C. in an atmosphere of 5% CO2. The toxicity was assessed the commonly used MTT (3-(4,5-dimethylthiazol-2-yl)-2,5-diphenyltetrazolium bromide) cell viability assay.
MTT cell viability assay. The cells were incubated for 24 with the different nanoparticles/substances. The cell medium was then aspirated and exchanged with 100 μl of medium containing a final concentration of 250 μg MTT/ml. The incubation was continued for 3 h at 37° C. for formation of the formazan-particles, which were dissolved in DMSO with 1% (v/v) NH4Cl. The absorbance was read in a plate reader (Biosys Ltd, Essex, UK) at 570 nm, and background from absorbance at 650 nm was subtracted.

Solubility of CBZ in the monomer (blend) [1]	Solubility of Alpelisib in the monomer (blend) [1]	Solubility of Mupirocin in the monomer (blend) [1]	Solubility of Oxaliplatin in the monomer (blend) [1]	Molecule	Cell activity remaining at 3.00 wt % alcohol (%), Hep G2 (Hep G2)	Cell activity remaining at 3.00 wt % alcohol (%), IMR-90 (IMR-90)	Cell activity remaining at 3.00 wt % alcohol (%), LLC-PK1 (LLC-PK1)	further results
Soluble	Soluble	Insoluble	Insoluble	C=C(C#N)C(=O)OCCCCC [1-PCA, 1-pentyl cyanoacrylate]	–	–	–	–
–	–	–	–	CCCCCCCO [1-heptanol]	72.3%	58.3%	61.8%	–
–	–	insoluble	–	C=C(C#N)C(=O)OCCCCCCCC [OCA (control), 1-octyl cyanoacrylate, reference compound]	–	–	–	–
Soluble	Soluble	Soluble; also recorded: able to dissolve	Insoluble	C=C(C#N)C(=O)OC(C)CCCCC (stereo not drawn) [2-HPCA, 2-heptyl cyanoacrylate]	–	–	–	–
–	–	–	–	C=C(C#N)C(=O)OCC(CC)CC [EBCA (control), 2-ethylbutyl cyanoacrylate, reference compound]	–	–	–	Solubility of Belinostat in the monomer (blend) [1]: not
Soluble	Soluble	Insoluble	Insoluble	C=C(C#N)C(=O)OCCCCCCC [1-HPCA, 1-heptyl cyanoacrylate]	–	–	–	Solubility of Belinostat in the monomer (blend) [1]: Soluble; Solubility of Docetaxil in the monomer (blend) [1]: Soluble
–	–	–	–	CCC(CC)CO [2-ethylbutanol (control), 2-ethylbutanol, reference compound]	74.6%	69.1%	86.2%	–
–	–	–	–	CCCCC(O)CC (stereo not drawn) [3-heptanol]	81.4%	81.7%	96.4%	–
–	–	–	–	OCCc1ccccc1 [2-phenylethanol]	0.9%	0.6%	1.1%	Toxicity at 3% alcohol [2]: significant toxicity
–	–	–	–	CCC(O)CC [3-pentanol]	89.7%	84.6%	78.6%	–
Soluble	Soluble	Partially	Insoluble	C=C(C#N)C(=O)OC(CC)CCCC (stereo not drawn) [3-HPCA, 3-heptyl cyanoacrylate]	–	–	–	–
Soluble	Soluble	Insoluble	Insoluble	C=C(C#N)C(=O)OCCC(C)C [3-MBCA, 3-methylbutyl cyanoacrylate]	–	–	–	–
–	–	–	–	CCCCCC(C)O (stereo not drawn) [2-heptanol]	73.9%	50.7%	81.1%	–
–	–	–	–	CCCCC(CC)CO (stereo not drawn) [2-ethylhexanol]	91.2%	7.9%	79.8%	–
–	–	–	–	CCCCCCCCO [1-octanol (control), 1-octanol, reference compound]	69.8%	0.9%	1.8%	–
dissolves	dissolves	–	dissolves	C=C(C#N)C(=O)OCCc1ccccc1 [2-PECA, 2-phenylethyl cyanoacrylate]	–	–	–	–
–	–	–	–	CC(C)CCO [3-methylbutanol]	72.4%	67.6%	94.3%	–
–	–	–	–	CC(C)(C)CCO [3,3-dimethylbutanol]	84.8%	81.7%	98.2%	–
–	–	–	–	1-butanol [1-butanol (control), reference compound]	61.8%	59.7%	81.8%	–
Soluble	Soluble	Insoluble	Insoluble	C=C(C#N)C(=O)OCCC(C)(C)C [3,3-DMBCA, 3,3-dimethyl-1 butyl cyanoacrylate]	–	–	–	–
Soluble	Soluble	Soluble; also recorded: able to dissolve	Insoluble	C=C(C#N)C(=O)OC(CC)CC [3-PCA, 3-pentyl cyanoacrylate]	–	–	–	–
–	–	–	–	CCCCCO [1-pentanol]	63.3%	57.1%	83.4%	–
